Source: ChEMBL document CHEMBL5214900, “Design, Synthesis, and Biological Evaluation of Membrane-Active Bakuchiol Derivatives as Effective Broad-Spectrum Antibacterial Agents” (J Med Chem, 2021)
≈ marks a conversion by molar mass, not a printed value. Calls of active or inactive are those of the source. The rule behind the calls is not given here.

How the values were obtained:
Lipopolysaccharide (LPS) = assay: Displacement of BODIPY-TR-cadaverine from Escherichia coli Lipopolysaccharide at 2 times MIC measured for 30 mins by fluorescence based microplate reader assay relative to control
Escherichia coli [1] = assay: Antibacterial activity against Escherichia coli ATCC 25922 assessed as fold increase in MIC incubated for 24 hrs in presence of 2.5 mM Ca2+ by CLSI based broth dilution method; type: functional
Lipoteichoic acid = assay: Displacement of BODIPY-TR-cadaverine from Bacillus subtilis Lipoteichoic acid at 2 times MIC measured for 30 mins by fluorescence based microplate reader assay relative to control
Staphylococcus aureus [2] = assay: Antibacterial activity against Staphylococcus aureus ATCC 29213 assessed as eradication of preformed bacterial biofilm by measuring residual biofilm viability at 0.78 ug/ml incubated for 24 hrs by crystal violet staining based assay relative to control; type: functional; conditions: dose 0.78 µg/ml
[3] = Toxicity in C57BL/6 mouse assessed as corneal damage at 0.8 mg/ml, TOP administered 4 times a day for 3 consecutive days; conditions: in vivo, topical_or_ocular, 72 h, time 3 day
Klebsiella pneumoniae = assay: Antibacterial activity against Klebsiella pneumoniae ATCC 10031 assessed as inhibition of bacterial growth incubated for 24 hrs by CLSI based broth dilution method; type: functional
Acinetobacter baumannii [4] = assay: Antibacterial activity against Acinetobacter baumannii ATCC 17978 assessed as fold increase in MIC incubated for 24 hrs in presence of 2.5 mM Ca2+ by CLSI based broth dilution method; type: functional
Escherichia coli [5] = assay: Antibacterial activity against Escherichia coli ATCC 25922 assessed as eradication of preformed bacterial biofilm by measuring residual biofilm viability at 25 ug/ml incubated for 24 hrs by crystal violet staining based assay relative to control; type: functional; conditions: dose 25 µg/ml
Staphylococcus aureus [6] = assay: Antibacterial activity against Staphylococcus aureus ATCC 29213 assessed as fold increase in MIC incubated for 24 hrs in presence of 1 mM Mg2+ by CLSI based broth dilution method; type: functional
[7] = Cytotoxicity against mouse NCTC clone 929 cells assessed as cell viability at 3.125 ug/ml incubated for 24 hrs by CCK-8 assay relative to control; type: toxicity, cell-based; conditions: at 3.125 µg/mL, read-out: Activity
Cell membrane [8] = assay: Disruption of membrane integrity in Staphylococcus aureus ATCC 29213 assessed as increase in fluorescence intensity at 1 to 8 times MIC by SYTOX green dye based fluorescence analysis; conditions: DDE = dose-dependent effect
Escherichia coli [9] = assay: Antibacterial activity against Escherichia coli ATCC 25922 assessed as eradication of preformed bacterial biofilm by measuring residual biofilm viability at […] ug/ml incubated for 24 hrs by crystal violet staining based assay relative to control; type: functional; conditions: dose […] microg/ml, 1.56 ug/mL
Staphylococcus aureus [10] = assay: Induction of drug resistance in Staphylococcus aureus ATCC 29213 assessed as fold change in MIC measured after 19 passages by CLSI based broth dilution method; type: functional
Staphylococcus aureus [11] = assay: Antibacterial activity against Staphylococcus aureus ATCC 29213 assessed as eradication of preformed bacterial biofilm by measuring residual biofilm viability at 12.5 ug/ml incubated for 24 hrs by crystal violet staining based assay relative to control; type: functional; conditions: dose 12.5 µg/ml
Pseudomonas aeruginosa [12] = assay: Antibacterial activity against Pseudomonas aeruginosa ATCC 9027 in C57BL/6 mouse model of bacterial keratitis assessed as log reduction in number of viable bacterial colonies in infected cornea at 0.8 mg/ml, TOP administered 4 times a day for 3 consecutive days; type: functional; conditions: time 3 day
Escherichia coli [13] = assay: Antibiofilm activity against Escherichia coli ATCC 25922 assessed reduction in biofilm formation at 3.125 ug/ml measured after 24 hrs by crystal violet staining based assay relative to control; type: functional; set-up: scale not given: the % may be the effect or the level left; conditions: dose 3.125 µg/ml
Staphylococcus aureus [14] = assay: Antibacterial activity against Staphylococcus aureus ATCC 29213 assessed as eradication of preformed bacterial biofilm by measuring residual biofilm viability at 3.125 ug/ml incubated for 24 hrs by crystal violet staining based assay relative to control; type: functional; conditions: dose 3.125 µg/ml
[15] = Cytotoxicity against HEK293 cells assessed as cell viability incubated for 24 hrs by CCK-8 assay; type: toxicity, cell-based; conditions: human
Escherichia coli [16] = assay: Bactericidal activity against Escherichia coli ATCC 25922 assessed as log reduction in viable bacteria at 4 times MIC measured after 2 hrs by time-killing assay; type: functional
[17] = Cytotoxicity against mouse NCTC clone 929 cells assessed as cell viability incubated for 24 hrs by CCK-8 assay; type: toxicity, cell-based
[18] = Cytotoxicity against mouse NCTC clone 929 cells assessed as cell viability at 6.25 ug/ml incubated for 24 hrs by CCK-8 assay relative to control; type: toxicity, cell-based; conditions: at 6.25 µg/mL, read-out: Activity
Staphylococcus aureus [19] = assay: Antibacterial activity against methicillin-resistant Staphylococcus aureus N315 assessed as inhibition of bacterial growth incubated for 24 hrs by CLSI based broth dilution method; type: functional
Acinetobacter baumannii [20] = assay: Antibacterial activity against Acinetobacter baumannii ATCC 17978 assessed as fold increase in MIC incubated for 24 hrs in presence of 1 mM Mg2+ by CLSI based broth dilution method; type: functional
Cell membrane [21] = assay: Disruption of membrane integrity in Pseudomonas aeruginosa ATCC 9027 assessed as increase in fluorescence intensity at 1 to 8 times MIC by SYTOX green dye based fluorescence analysis; type: subcellular; conditions: DDE = dose-dependent effect
Staphylococcus aureus [22] = assay: Antibacterial activity against methicillin-resistant Staphylococcus aureus NCTC10442 assessed as inhibition of bacterial growth incubated for 24 hrs by CLSI based broth dilution method; type: functional
Escherichia coli [23] = assay: Bactericidal activity against Escherichia coli ATCC 25922 assessed as inhibition of bacterial regrowth at 4 to 8 times MIC measured after 24 hrs by time-killing assay; type: functional, organism-based
[24] = Cytotoxicity against HEK293 cells assessed as cell viability at 6.25 ug/ml incubated for 24 hrs by CCK-8 assay relative to control; type: toxicity, cell-based; conditions: human, at 6.25 µg/mL, read-out: Activity
Acinetobacter baumannii [25] = assay: Antibacterial activity against Acinetobacter baumannii ATCC 17978 assessed as inhibition of bacterial growth incubated for 24 hrs by CLSI based broth dilution method; type: functional
Staphylococcus aureus [26] = assay: Antibiofilm activity against Staphylococcus aureus ATCC 29213 assessed reduction in biofilm formation at 3.125 ug/ml measured after 24 hrs by crystal violet staining based assay relative to control; type: functional; set-up: scale not given: the % may be the effect or the level left; conditions: dose 3.125 µg/ml
Pseudomonas aeruginosa [27] = assay: Antibacterial activity against Pseudomonas aeruginosa ATCC 9027 assessed as inhibition of bacterial growth incubated for 24 hrs by CLSI based broth dilution method; type: functional
Escherichia coli [28] = assay: Antibiofilm activity against Escherichia coli ATCC 25922 assessed reduction in biofilm formation at 6.25 ug/ml measured after 24 hrs by crystal violet staining based assay relative to control; type: functional; set-up: scale not given: the % may be the effect or the level left; conditions: dose 6.25 µg/ml
Acinetobacter baumannii [29] = assay: Antibacterial activity against Acinetobacter baumannii ATCC 17978 assessed as fold increase in MIC incubated for 24 hrs in presence of 4.5 mM K+ by CLSI based broth dilution method; type: functional
Escherichia coli [30] = assay: Antibacterial activity against Escherichia coli ATCC 25922 assessed as eradication of preformed bacterial biofilm by measuring residual biofilm viability at 0.78 ug/ml incubated for 24 hrs by crystal violet staining based assay relative to control; type: functional; conditions: dose 0.78 µg/ml
Cell membrane [31] = assay: Disruption of membrane integrity in Staphylococcus aureus ATCC 29213 assessed as increase in red fluorescence intensity at 8 times MIC incubated for 2 hrs by SYTO 9/PI staining based fluorescence analysis; type: subcellular

C=C[C@@](C)(/C=C/c1ccc(OCCCCN(CCCN(C)C)CCCN(C)C)cc1)CCC=C(C)C
Activity (Lipopolysaccharide (LPS)): 53.3% | fold change (FC) (Escherichia coli [1]): <2 | Activity (Lipoteichoic acid): 35.3% | Activity (Staphylococcus aureus [2]): 88.63% | Activity [3]: Non-Toxic | MIC (Klebsiella pneumoniae): 3.12 µg/mL (≈ 6.28 µM) | fold change (FC) (Acinetobacter baumannii [4]): <2 | Activity (Escherichia coli [5]): 2.38% | fold change (FC) (Staphylococcus aureus [6]): <2 | viability at 24 h, 3.125 ug/ml [7]: 88.9% | Activity (Cell membrane [8]): Dde | Activity (Escherichia coli [9]): 69.09% | fold change (FC) (Staphylococcus aureus [10]): < 4 | Activity (Staphylococcus aureus [11]): 24.19% | log(activity) (Pseudomonas aeruginosa [12]): 2.95 | Activity (Escherichia coli [13]): 92.62% | Activity (Staphylococcus aureus [14]): 52.49% | CC50 at 24 h [15]: 28.6 µg/mL (≈ 57.5 µM) | log(activity) (Escherichia coli [16]): 4.28 | CC50 at 24 h [17]: 36.8 µg/mL (≈ 73.9 µM) | viability at 24 h, 6.25 ug/ml [18]: 84.9% | MIC (Staphylococcus aureus [19]): 1.56 µg/mL (≈ 3.13 µM) | fold change (FC) (Acinetobacter baumannii [20]): <2 | Activity (Cell membrane [21]): Dde | MIC (Staphylococcus aureus [22]): 1.56 µg/mL (≈ 3.13 µM) | Activity (Escherichia coli [23]): Active | viability at 24 h, 6.25 ug/ml [24]: 93.8% | MIC (Acinetobacter baumannii [25]): 3.12 µg/mL (≈ 6.28 µM) | Activity (Staphylococcus aureus [26]): 96.53% | MIC (Pseudomonas aeruginosa [27]): 3.12 µg/mL (≈ 6.28 µM) | Activity (Escherichia coli [28]): 95.7% | fold change (FC) (Acinetobacter baumannii [29]): <2 | Activity (Escherichia coli [30]): 91.55% | Activity (Cell membrane [31]): Active
